The record followed here is paper PMC6240096, “A hPSC-based platform to discover gene-environment interactions that impact human β-cell and dopamine neuron survival” (Nature Communications, 2018).

For one experiment, the system named is CD29+CD73+ MSCs. Description: Inhibition curve on hESC-derived MSCs. In kind it is cell-based, human. The conditions noted are these: cell survival rate, 4 days, n=3. Here is the method: (§1) hESCs-derived INS^+ cells, MSCs[43], neurons, and hepatocytes[44] were derived based on the reported protocols and re-plated on 96-well plates with Accutase digestion. Cardiomyocytes (CMs) were differentiated from H9-MYH6: mCherry reporter line, based on the reported protocol. After overnight incubation, cells were treated with DMSO or different doses of hit compounds for 4 days. After fixation, the cells were stained with markers for each cell type. DAPI was used to stain cell nuclei. Plates were analyzed by ImageXpress^MICRO Automated High-Content Analysis System.
(§2) Supplementary Figure 4. Assessment of the toxic effect of propargite on different type […]
(§3) (a) Flow cytometry char acterization of CD29+ and CD73+ mesenchymal stem cells (MSCs) derived from H1 hESCs. (b-c) microscope image (b) and flow cytometry (c) characterization of cardiomyocytes expressing MYH6+ derived from a MYH6:mCherry reporter hESC line. (d-e) Immunocytochemistry characterization of MAP2+/TUJ1+ and HuC/D+/MAP2+ neurons (d) and A1AT+/ASGPR1+ hepatocytes (e) derived from H1 hESCs. All the cells were counterstained by DAPI (blue). Scale bars, 100 µm. (f) Inhibition curve of propargite on pancreatic β-like cells, MSCs, cardiomyocytes, neurons, and hepatocytes derived from hESCs, and BJ-fibroblasts (n=3). Values presented as mean±S.D. […]

A further experiment deals with mDA neurons. Description: Survival of hESC-derived midbrain dopamine neurons. In kind it is cell-based, human.
The test system of experiment [1] is MIN6 cells. Description: Apoptosis analysis (Annexin V flow cytometry, active caspase-3 staining). The conditions noted are these: immunocytochemistry, 1.6 µM. In kind it is cell-based, mouse. The method, then: Cells were fixed with 10% (v/v) formalin for 20 min at room temperature (RT) and blocked in a solution of Mg^2+- and Ca^2+-free PBS containing 5% horse serum and 0.3% Triton-X for 1 h at room temperature and followed by incubation with primary antibody at 4 °C overnight. […]
Cells were dissociated by Accutase (Stem Cells) and washed with cold DPBS and then detected with FITC Annexin V Apoptosis Detection Kit I (BD Bioscience, 556547), and analyzed within 1 h by FACSVantage SE (Becton Dickinson). […]
cells. (b, c) Flow cytometry analysis (b) and quantification (c) of the percentage of […]
Etoposide was used as a positive control. Values presented as mean±S.D. (d, e) Immunocytochemistry analysis (d) and quantification (e) of the percentage of Active Caspase-3+ cells in 1.6 µM propargite treated MIN6 cells (n=3). […]

Another experiment deals with hESC-derived INS+ cells. Description: Ki67 proliferation staining of hESC-derived INS+ cells. In kind it is cell-based, human. To be noted: 1.6 µM propargite vs DMSO. The method, then:
Cells were fixed with 10% (v/v) formalin for 20 min at room temperature (RT) and blocked in a solution of Mg^2+- and Ca^2+-free PBS containing 5% horse serum and 0.3% Triton-X for 1 h at room temperature and followed by incubation with primary antibody at 4 °C overnight. The following primary antibodies and dilutions have been used in this study: goat anti-SOX17 (1:500, R&D system, AF1924), rabbit anti-FOXA2 (1:500, Upstate, 07-633), goat anti-PDX1 (1:500, R&D system, AF2419), mouse anti-NKX6.1 (1:100; BCBC, Ab2024), guinea pig anti-INS (1:1000, Dako, A0564), guinea pig anti-GLUCAGON (1:500, Linco, 4031), mouse anti-Ki67 (1:100, Life technologies, 556003), mouse anti-AMYLASE (1:100, Santa Cruz, sc-46657), rabbit anti-Active Caspase-3 (1:500, BD Bioscience, 559565), mouse anti-Troponin T (1:500, Thermo Scientific, MA5-12960), mouse anti-Actin, Cardiac (1:300, Sigma, A9357), rabbit anti-TUJ1 (1:500, Covance, MRB-435P), Chicken anti-MAP2 (1:1000, Abcam, Ab5392), mouse anti-HuC/D (1:500, Invitrogen, A-21271), mouse anti-MAP2 (1:1500, Sigma, M1406), rabbit anti-TH (1:500, Pel freeze, P40101-0), rat-anti-CTIP2 (1:500, Abcam, ab18465), goat anti-FOXA2 (1:200, R&D, 463783). Donkey anti-guinea pig, mouse, goat, rabbit or chicken secondary antibodies conjugated with Alexa-Fluor-488, Alexa-Fluor-594 or Alexa-Fluor-647 fluorophore (1:500, Life technologies) were used. […]

The test system of experiment [2] is MIN6 cells. Description: Intracellular ROS detection. To be noted: propargite-treated MIN6 cells.
Procedure: Total intracellular ROS were detected using DCFDA-Cellular Reactive Oxygen Species Detection Assay Kit (Abcam, ab113851).
Species detection for different doses of propargite-treated MIN6 cells (n=3). 50 µM TBHP
The subject of experiment [3] is MYH6:mCherry+ cardiomyocytes. Description: Inhibition curve on hESC-derived cardiomyocytes. In kind it is cell-based, human. The conditions noted are these: cell survival rate, 4 days, n=3. The method, then: as §1, §2, §3

Procedure for mDA neurons: Scale bars, 50 μm. b Relative cell survival rate of cortical- and mDA-neurons treated with DMSO or different doses of propargite. […] White arrows indicate propargite-treated mDA cells (TH; red) co-stained with the DNA damage marker (rH2AX; green), and all cells were counterstained with DAPI (blue). […] Values presented as mean ± S.D. p-value was calculated by unpaired two-tailed Student’s t-test were *p < 0.05, **p < 0.01. n.s. indicates a non-significant difference.
Cortical and mDA differentiation from hESC were done with similar protocols those published by our lab previously[36],[37].

“2-(4-tert-butylphenoxy)-cyclohexyl prop-2-yne-1-sulfonate [propargite]”: the figures for the half-inhibitory concentration (IC50) (with CD29+CD73+ MSCs; in experiment [3]) were 5.85 µM and 29 µM, respectively. Moreover, in the experiment on mDA neurons (concentrations at 1 and 3 μM, compared with cortical neurons), the “mDA neuron cell death” value is given as “significant mDA neuron cell death”. In addition, the “decrease of total cell number in DA neuron cultures” value in the experiment with mDA neurons (propargite 1 µM, 3 µM) was 40-60%. The “sensitivity of GSTT1-/- hESC-derived mDA neurons vs GSTT1+/+ or GSTM1-/-” value in the experiment with mDA neurons (propargite 3 μM, FOXA2+ cells) is “more sensitive”. For the same substance, the caspase-3 activation entry in the experiment with MIN6 cells [1] is recorded as “nor caspase-3 activation”. For the same substance, the “percentage of Ki67+/INS+ cells” value with hESC-derived INS+ cells is recorded as “did not affect”. The “reactive oxygen species (ROS)” value with MIN6 cells [2] was “did not find any increase”.

A word on the IC50: it is the concentration that gives 50% inhibition.
